Test results reported in patent publication US5212286A, “Atrial Natriuretic/vasodilator peptide compounds” (Scios Nova Inc., priority 1986, dated 1993).
Positions of bridges follow the written chain, without caps; N, C: chain ends. Residues, ends and D or L forms follow the SMILES beside them.

Key:
[1] = test system: precontracted rabbit or rat aortic preparations; assay: Vasorelaxant potency on precontracted aortic rings; details: for IC50: thoracic aortic segments precontracted with histamine or norepinephrine, read-out: IC50 (concentration producing half-maximal relaxation of the precontracted tissue); for vasorelaxant potency in words: precontracted vascular preparations
Description: Synthetic ANVP compounds were compared to partially purified (gel filtration step) and purified (HPLC) native ANVP compounds (See FIGS. 3A-D) for their ability to relax histamine-contracted aortic rings. Rings were suspended in 10 ml aerated Kreb's buffer under 1.5 gm passive tension. Rings were precontracted with 5 X 10^-6 M histamine, washed and allowed to return to baseline tension, as described ([…]., supra). Increasing amounts of purified or synthetic ANVP compounds were then added in cumulative fashion. […] The relaxation effects of various ANVP compounds on precontracted rabbit or rat aortic preparations are shown in Table III. | Thoracic aortic segments were precontracted with histamine or | norepinephrine as previously described. Various doses of ANVP compounds | were then added and relaxation of the precontracted state was monitored. | Data are expressed as the concentration of each peptide required to | produce a halfmaximal relaxation of the precontracted tissue (IC50).

[2] = test system: ANVP receptor sites on cultured bovine vascular smooth muscle cells; assay: Displacement of specific [125I]rANVP(126-150) binding on cultured smooth muscle cells; details: for Ki: concentration of half-maximal displacement
Source text: Specific and saturable binding is a necessary component of a hormone/receptor interaction.
Various concentrations of the peptides described were examined for […]

isolated rat kidney = assay: Renal function in the isolated perfused rat kidney
intact rats = assay: Natriuretic and diuretic effects in intact rats (bolus injection); format: in vivo, rat
Description: Synthetic ANVP compounds […] hANVP(127-151) were also found to be natriuretic in the intact rat. These compounds were administered as a bolus injection to Inactin anesthetized rats (100 mg/kg, average weight 399 g) which were maintained on a constant infusion of normal saline at 2.2 ml/hr. […] Data are expressed as mean±SE.

anesthetized dogs = assay: Hemodynamic, renal and metabolic effects in anesthetized dogs; format: in vivo, dog
Description: Renal and hemodynamic effects have also been measured in anesthetized dogs receiving a constant infusion of the compound rANVP(126-149) (1 μg/kg bolus, followed by 0.1 μg/kg/min for 1 hour). Effects were immediately detected on blood pressure, GFR and urine flow rate and electrolyte excretion and were sustained throughout the infusion. The "experimental" data presented for these parameters in […] are the average values obtained during the infusion. Mean arterial pressure (MAP) fell consistently by 10-15% while GFR rose by 25-35%, in association with a sustained diuresis and natriuresis (Table VIII). The parameters returned to control (i.e. pre-infusion) levels following termination of the infusion.

[3] = dose 1 μg, experimental period E, mean of 3-8 experiments
[4] = experimental: average during infusion
[5] = recovery, after termination of the infusion
[6] = experimental peak value, 0.1 to 1.0 μg added to perfusate, mean ± SE of 4 kidneys

For CC[C@H](C)[C@@H]1NC(=O)[C@H](CCCNC(=N)N)NC(=O)CNC(=O)CNC(=O)[C@H](Cc2ccccc2)NC(=O)[C@@H](NC(=O)[C@H](CO)NC(=O)[C@H](CO)NC(=O)[C@@H](N)CCCNC(=N)N)CSSC[C@@H](C(=O)N[C@@H](CC(N)=O)C(=O)N[C@@H](CO)C(=O)N[C@@H](Cc2ccccc2)C(=O)N[C@@H](CCCNC(=N)N)C(=O)N[C@@H](Cc2ccc(O)cc2)C(=O)O)NC(=O)CNC(=O)[C@H](CC(C)C)NC(=O)CNC(=O)[C@H](CO)NC(=O)[C@H](CCC(N)=O)NC(=O)[C@H](C)NC(=O)[C@@H](C)NC(=O)[C@H]([C@@H](C)CC)NC(=O)[C@H](CCCNC(=N)N)NC(=O)[C@H](CC(=O)O)NC1=O [[D-Ala^138]rANVP(126-150), H-Arg-Ser-Ser-Cys-Phe-Gly-Gly-Arg-Ile-Asp-Arg-Ile-[D-Ala]-Ala-Gln-Ser-Gly-Leu-Gly-Cys-Asn-Ser-Phe-Arg-Tyr-OH], the IC50 [1] was 3.1 nM, the Ki ([2]; Series A smooth muscle cells) was 20 nM and the “.V (urine flow rate)” value (isolated rat kidney; [3]) was 57.5 µL/min. For the same compound, the GFR (isolated rat kidney; [3]) was 0.54 mL/min and the “UNa.V (urinary sodium excretion rate)” value (isolated rat kidney; [3]) was 2.53 μEq/min.

Work on CC[C@H](C)[C@@H]1NC(=O)[C@H](CCCNC(=N)N)NC(=O)[C@H](CC(=O)O)NC(=O)[C@@H](CCSC)NC(=O)[C@H](CCCNC(=N)N)NC(=O)CNC(=O)CNC(=O)[C@H](Cc2ccccc2)NC(=O)[C@@H](NC(=O)[C@H](CO)NC(=O)[C@H](CO)NC(=O)[C@@H](N)CCCNC(=N)N)CSSC[C@@H](C(=O)N[C@@H](CC(N)=O)C(=O)N[C@@H](CO)C(=O)N[C@@H](Cc2ccccc2)C(=O)N[C@@H](CCCNC(=N)N)C(=O)N[C@@H](Cc2ccc(O)cc2)C(=O)O)NC(=O)CNC(=O)[C@H](CC(C)C)NC(=O)CNC(=O)[C@H](CO)NC(=O)[C@H](CCC(N)=O)NC(=O)[C@H](C)NC(=O)CNC1=O [[D-Met^135]hANVP(127-151), H-Arg-Ser-Ser-Cys-Phe-Gly-Arg-[D-Met]-Asp-Arg-Ile-Gly-Ala-Gln-Ser-Gly-Leu-Gly-Cys-Asn-Ser-Phe-Arg-Tyr-OH] yielded an IC50 [1] of 7.6 nM and a Ki ([2]; Series B smooth muscle cells) of 4.27 nM.

With CC[C@H](C)[C@@H]1NC(=O)[C@H](CCCNC(=N)N)NC(=O)[C@H](CC(=O)O)NC(=O)[C@H](CCSC)NC(=O)[C@H](CCCNC(=N)N)NC(=O)CNC(=O)CNC(=O)[C@H](Cc2ccccc2)NC(=O)[C@@H](NC(=O)[C@H](CO)NC(=O)[C@H](CO)NC(=O)[C@@H](N)CCCNC(=N)N)CSSC[C@@H](C(=O)O)NC(=O)CNC(=O)[C@H](CC(C)C)NC(=O)CNC(=O)[C@H](CO)NC(=O)[C@H](CCC(N)=O)NC(=O)[C@H](C)NC(=O)CNC1=O [hANVP(127-146)] (H-RSSCFGGRMDRIGAQSGLGC-OH; disulfide 4-20) the “vasorelaxant potency in words” value [1] was “substantially diminished potency”, the IC50 [1] was 100 nM and the Ki ([2]; Series B smooth muscle cells) was 1.82 nM.

For CC[C@H](C)[C@@H]1NC(=O)[C@H](CCCNC(=N)N)NC(=O)[C@H](CC(=O)O)NC(=O)[C@H]([C@@H](C)CC)NC(=O)[C@H](CCCNC(=N)N)NC(=O)CNC(=O)CNC(=O)[C@H](Cc2ccccc2)NC(=O)[C@@H](NC(=O)[C@H](CO)NC(=O)[C@H](CO)NC(=O)[C@@H](N)CCCNC(=N)N)CSSC[C@@H](C(=O)N[C@@H](CC(N)=O)C(=O)N[C@@H](CO)C(N)=O)NC(=O)CNC(=O)[C@H](CC(C)C)NC(=O)CNC(=O)[C@H](CO)NC(=O)[C@H](CCC(N)=O)NC(=O)[C@H](C)NC(=O)CNC1=O [rANVP(126-147)-NH2] (H-RSSCFGGRIDRIGAQSGLGCNS-NH2; disulfide 4-20), the IC50 [1] was 13 nM and the Ki ([2]; Series B smooth muscle cells) was 1.83 nM.

CC[C@H](C)[C@@H]1NC(=O)[C@H](CCCNC(=N)N)NC(=O)[C@H](CC(=O)O)NC(=O)[C@H]([C@@H](C)CC)NC(=O)[C@H](CCCNC(=N)N)NC(=O)CNC(=O)CNC(=O)[C@H](Cc2ccccc2)NC(=O)[C@@H](NC(=O)[C@H](CO)NC(=O)[C@H](CO)NC(=O)[C@@H](N)CCCNC(=N)N)CSSC[C@@H](C(=O)N[C@@H](CC(N)=O)C(=O)N[C@@H](CO)C(=O)N[C@@H](Cc2ccccc2)C(=O)O)NC(=O)CNC(=O)[C@H](CC(C)C)NC(=O)CNC(=O)[C@H](CO)NC(=O)[C@H](CCC(N)=O)NC(=O)[C@H](C)NC(=O)CNC1=O [rANVP(126-148)] (H-RSSCFGGRIDRIGAQSGLGCNSF-OH; disulfide 4-20) was tested, and the “vasorelaxant potency in words” value [1] was “substantially less potent than rANVP(126-150)”, the IC50 [1] was 7.5 nM and the “Peak Na+ Excr.” value (intact rats; dose 455 pmol/kg) was 56.3 ± 8 µmol/min. For the same compound, the “Peak Urine Vol.” value (intact rats; dose 455 pmol/kg) was 6.8 ± 0.5 µL/min, the “binding activity in smooth muscle cells relative to rANVP(126-150), in words” value [2] was “comparable binding activity to rANVP(126-150)” and the Ki ([2]; Series B smooth muscle cells) was 1.32 nM.

With CC[C@H](C)[C@@H]1NC(=O)[C@H](CCCNC(=N)N)NC(=O)[C@H](CC(=O)O)NC(=O)[C@H]([C@@H](C)CC)NC(=O)[C@H](CCCNC(=N)N)NC(=O)CNC(=O)CNC(=O)[C@H](Cc2ccccc2)NC(=O)[C@@H](NC(=O)[C@H](CO)NC(=O)[C@H](CO)NC(=O)[C@@H](N)CCCNC(=N)N)CSSC[C@@H](C(=O)N[C@@H](CC(N)=O)C(=O)N[C@@H](CO)C(=O)N[C@@H](Cc2ccccc2)C(=O)N[C@@H](CCCNC(=N)N)C(=O)O)NC(=O)CNC(=O)[C@H](CC(C)C)NC(=O)CNC(=O)[C@H](CO)NC(=O)[C@H](CCC(N)=O)NC(=O)[C@H](C)NC(=O)CNC1=O [rANVP(126-149)] (H-RSSCFGGRIDRIGAQSGLGCNSFR-OH; disulfide 4-20) the “fall of mean arterial pressure (MAP)” value (anesthetized dogs; during infusion) was 10-15%, the “rise of GFR” value (anesthetized dogs; during infusion) was 25-35% and the “.V (urine flow rate)” value (anesthetized dogs; [4]) was 1.06 ± 0.14 mL/min. For the same compound, the “FEH2O (fractional water excretion)” value (anesthetized dogs; [4]) was 3.4 ± 0.3%, the FEK (anesthetized dogs; [4]) was 34 ± 6% and the FENa (anesthetized dogs; [4]) was 4.1 ± 0.5%. For the same compound, the GFR (anesthetized dogs; [4]) was 32.3 ± 4.1 mL/min, the “PA (plasma aldosterone)” value (anesthetized dogs; [4]) was 5.4 ± 0.9 ng/100 ml and the “PRA (plasma renin activity)” value (anesthetized dogs; [4]) was 8.3 ± 1.8 ng/mL/h. The “UK .V” value (anesthetized dogs; [4]) was 36 ± 6 μEq/min, the “UNa .V” value (anesthetized dogs; [4]) was 187 ± 35 μEq/min and the “MAP (mean arterial pressure)” value (anesthetized dogs; experimental: average during infusion, 1 μg/kg bolus then 0.1 μg/kg/min for 1 hour) was 122 ± 4 mm Hg. The “.V (urine flow rate)” value (anesthetized dogs; [5]) was 0.37 ± 0.05 mL/min, the “FEH2O (fractional water excretion)” value (anesthetized dogs; [5]) was 1.5 ± 0.2% and the FEK (anesthetized dogs; [5]) was 21 ± 4%. For the same compound, the FENa (anesthetized dogs; [5]) was 1.9 ± 0.4%, the GFR (anesthetized dogs; [5]) was 25.4 ± 3.3 mL/min and the “MAP (mean arterial pressure)” value (anesthetized dogs; [5]) was 136 ± 4 mm Hg. The “PA (plasma aldosterone)” value (anesthetized dogs; [5]) was 7.0 ± 1.3 ng/100 ml, the “PRA (plasma renin activity)” value (anesthetized dogs; [5]) was 14 ± 2.5 ng/mL/h and the “UK .V” value (anesthetized dogs; [5]) was 21 ± 4 μEq/min. For the same compound, the “UNa .V” value (anesthetized dogs; [5]) was 68 ± 14 μEq/min, the “natriuretic in the intact rat, in words” value (intact rats; bolus injection, Inactin anesthetized rats) was “natriuretic” and the Ki ([2]; Series B smooth muscle cells) was 0.89 nM. For the same compound, the “.V (urine flow rate)” value (isolated rat kidney; [6]) was 97.6 ± 19.4 µL/min, the “FEK (fractional potassium excretion)” value (isolated rat kidney; [6]) was 52.1 ± 6.2% and the “FENa (fractional sodium excretion)” value (isolated rat kidney; [6]) was 6.6 ± 2.0%. The “FF (filtration fraction)” value (isolated rat kidney; [6]) was 0.021 ± 0.001, the “FLNa (filtered load of sodium)” value (isolated rat kidney; [6]) was 90.1 ± 5.2 μEq/min and the “GFR (glomerular filtration rate)” value (isolated rat kidney; [6]) was 0.63 ± 0.03 mL/min. For the same compound, the “RVR (renal vascular resistance)” value (isolated rat kidney; [6]) was 3.9 ± 0.3 mmHg/ml/min, the “TNa (tubular reabsorption of sodium)” value (isolated rat kidney; [6]) was 84.2 ± 4.8 μEq/min and the “UK .V (urinary potassium excretion rate)” value (isolated rat kidney; [6]) was 1.46 ± 0.16 μEq/min. For the same compound, the “UNa.V (urinary sodium excretion rate)” value (isolated rat kidney; [6]) was 6.01 ± 1.99 μEq/min.
